For the assay, the target named is T1, 5-lipoxygenase (Rattus norvegicus, UniProt P12527).
T1 construct: (RBL-1, ATCC NO. CRL 1378) cells of rats were used as a 5-lipoxygenase enzyme source; endogenous in cells; host or cells: RBL-1 (rat basophilic leukemia) cells, ATCC CRL 1378
T1 sequence (P12527 1-673): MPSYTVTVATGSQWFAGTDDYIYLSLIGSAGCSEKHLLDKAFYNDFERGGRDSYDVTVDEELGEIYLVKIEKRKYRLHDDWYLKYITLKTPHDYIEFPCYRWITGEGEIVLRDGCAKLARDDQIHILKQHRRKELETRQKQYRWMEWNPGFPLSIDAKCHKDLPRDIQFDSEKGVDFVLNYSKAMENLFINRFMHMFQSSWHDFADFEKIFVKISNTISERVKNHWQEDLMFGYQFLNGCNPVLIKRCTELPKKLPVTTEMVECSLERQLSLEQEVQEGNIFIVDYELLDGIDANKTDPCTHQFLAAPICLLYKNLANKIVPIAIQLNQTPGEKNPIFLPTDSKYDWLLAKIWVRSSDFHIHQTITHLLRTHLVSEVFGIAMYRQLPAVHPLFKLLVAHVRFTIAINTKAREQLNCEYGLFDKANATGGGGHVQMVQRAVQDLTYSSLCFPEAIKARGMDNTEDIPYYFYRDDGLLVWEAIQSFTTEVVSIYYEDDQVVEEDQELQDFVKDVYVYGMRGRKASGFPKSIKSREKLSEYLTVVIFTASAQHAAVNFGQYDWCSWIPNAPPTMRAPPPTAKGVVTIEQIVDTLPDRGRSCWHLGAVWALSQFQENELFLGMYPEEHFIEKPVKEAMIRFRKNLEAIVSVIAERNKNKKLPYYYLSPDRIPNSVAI
Nature of the assay: Inhibiting action on leukocyte 5-lipoxygenase in vitro (RBL-1 cells as enzyme source, 14C-arachidonic acid). The note with it: RBL-1 rat cells, 37° C., 5 minutes; for inhibition at 1 µM: 1 μM compound, read-out: 5-lipoxygenase-inhibiting activity: Percent inhibition at 1 μM compound concentration. It is filed as biochemical, rats. The protocol: Inhibiting actions of test compounds shown in Table 2 on lipoxygenase in vitro were determined according to the following procedure.
Procedure for determining inhibiting actions on leukocyte 5-lipoxygenase:
Determination was conducted according to the modified B. A. Jakschik et al procedure [Biochim. Biophys. Res. Commun. 95, 103 (1980)]. That is, Leukemic basophilic granulocyte (RBL-1, ATCC NO. CRL 1378) cells of rats were used as a 5-lipoxygenase enzyme source, and the cells and a test compound were contacted with each other in a 0.07 M tris hydrochloric acid buffer solution in the presence of 0.7 μm moles of calcium chloride at 37° C. for 5 minutes, and then 20 μmoles of [^14 C]-arachidonic acid was added thereto. The mixture was subjected to reaction at 37° C. for 5 minutes. The reaction product was extracted with ethyl acetate/methanol/0.2 M citric acid (30/4/1) and the extract was subjected to a thin layer chromatographic separation (developing solvent: petroleum ether/ethyl ether/acetic acid=50/50/1), and the spot of […] in the product was scraped off and ^14 C was measured by a liquid scintillation counter.

Counter-ions that a name gives are not always drawn.

What is called IC50 is the concentration at which inhibition is half-maximal. A higher IC50 goes with lower potency.

For `[O-][n+]1c(CCCCCCCCCCCO)cc(OCc2ccccc2)c2ccccc21` [1-(2), 4-benzyloxy-2-(11-hydroxyundecyl) quinoline-N-oxide], the inhibition at 1 µM was 7.7%.

Turning to `[O-][n+]1c(CCCO)cc(OCc2ccccc2)c2ccccc21` [Example 2, 4-benzyloxy-2-(3-hydroxypropyl) quinoline-N-oxide], the inhibition at 1 µM is 2.7%.

In the case of `[O-][n+]1c(CCCCCCCCCCCO)cc(O)c2ccccc21` [Example 3, 4-hydroxy-2-(11-hydroxyundecyl) quinoline-N-oxide], the IC50 was found to be 280 nM. This lies in the sub-micromolar range.

On to `[O-][n+]1c(CCCOC2CCCCO2)cc(O)c2ccccc21` (stereo not shown) [Example 4, 4-hydroxy-2-[3-(2-tetrahydropyranyloxy)propyl] quinoline-N-oxide], for which the inhibition at 1 µM is 1.6%.

Regarding `[O-][n+]1c(CCCCCCCCCCCO)c(Br)c(O)c2ccccc21` [Example 5, 3-bromo-4-hydroxy-2-(11-hydroxyundecyl) quinoline-N-oxide], 220 nM corresponded to half-maximal inhibition (IC50).

Turning to `[O-][n+]1c(CCCCCCCCCCCOC2CCCCO2)cc(OCc2ccccc2)c2ccccc21` (stereo not shown) [Example 6, 4-benzyloxy-2-[11-(2-tetrahydropyranyloxy)undecyl] quinoline-N-oxide], the inhibition at 1 µM was found to be 20%.

Take `O=CCCCCCCCCCCc1cc(OCc2ccccc2)c2ccccc2[n+]1[O-]` [Example 7, 4-benzyloxy-2-(10-formyldecyl) quinoline-N-oxide]: the inhibition at 1 µM turned out to be 33.1%.

On to `O=C(O)CCCCCCCCCCc1cc(OCc2ccccc2)c2ccccc2[n+]1[O-]` [Example 8, 4-benzyloxy-2-(10-carboxydecyl) quinoline-N-oxide], for which the inhibition at 1 µM was 27.3%.

For `NCCCCCCCCCCCc1cc(OCc2ccccc2)c2ccccc2[n+]1[O-]` [Example 9, 4-benzyloxy-2-(11-aminoundecyl) quinoline-N-oxide], the inhibition at 1 µM came out at 27%.

Consider `[O-][n+]1c(CCCCCCCCCCCNCc2ccccc2)cc(OCc2ccccc2)c2ccccc21` [Example 10, 4-benzyloxy-2-[11-(N-benzylaminoundecyl)] quinoline-N-oxide], for which the inhibition at 1 µM stood at 32.4%.

Regarding `[O-][n+]1c(CCCCCCCCCCC=NO)cc(OCc2ccccc2)c2ccccc21` [Example 11], the inhibition at 1 µM turned out to be 36.6%.

With `COC(CCCCCCCCCCc1cc(OCc2ccccc2)c2ccccc2[n+]1[O-])OC` [Example 12, 4-benzyloxy-2-(11,11-dimethoxyundecyl) quinoline-N-oxide], the inhibition at 1 µM worked out at 37.2%.

On to `[O-][n+]1c(CCCOC2CCCCO2)cc(OCc2ccccc2)c2ccccc21` (stereo not shown) [Example 13, 4-benzyloxy-2-[3-(2-tetrahydropyranyloxy)propyl]quinoline-Noxide], for which the inhibition at 1 µM was determined as 11.5%.

On to `[O-][n+]1c(CCCCCCCCCCCOC2CCCCO2)cc(O)c2ccccc21` (stereo not shown) [Example 14, 4-hydroxy-2-[11-(2-tetrahydropyranyloxy)undecyl] quinoline-N-oxide], for which 160 nM corresponded to half-maximal inhibition (IC50).

`O=C(O)CCCCCCCCCCc1cc(O)c2ccccc2[n+]1[O-]` [Example 15, 4-hydroxy-2-(10-carboxydecyl) quinoline-Noxide] showed an IC50 of 2700 nM.

As for `NCCCCCCCCCCCc1cc(O)c2ccccc2[n+]1[O-]` [Example 16, 4-hydroxy-2-(11-aminoundecyl) quinoline-Noxide. hydrochloride], 250 nM corresponded to half-maximal inhibition (IC50). Against the preceding compound, the IC50 is about 11-fold lower.

`[O-][n+]1c(CCCCCCCCCCCNCc2ccccc2)cc(O)c2ccccc21` [Example 17, 4-hydroxy-2-[11-(N benzylaminoundecyl)] quinoline-Noxide] came in with an IC50 of 270 nM.

Take `COC(CCCCCCCCCCc1cc(O)c2ccccc2[n+]1[O-])OC` [Example 19, 4-hydroxy-2-(11,11-dimethoxyundecyl) quinoline-Noxide]: the IC50 was determined as 180 nM.

The compound `O=CCCCCCCCCCCc1cc(O)c2ccccc2[n+]1[O-]` [Example 20, 4-hydroxy-2-(10-formyldecyl) quinoline-Noxide] yielded an IC50 of 1700 nM.

The record behind these values is US4657916A, “Quinoline-N-oxide derivative and pharmaceutical composition” (Kyowa Hakko Kogyo Co., Ltd., priority 1984, dated 1987).
